Results reported in PubChem BioAssay AID256 (DTP/NCI, 2004).
“And” between values parts separate entries of the source, which are not always exact repeats. Equal entries are not always repeated. Inconclusive results and toxic doses are left out.

System: CD2F1 mice, L1210 leukemia ip, survival T/C
Test: NCI In Vivo Anticancer Drug Screen. Data for tumor model L1210 Leukemia (intraperitoneal) in CD2F1 (CDF1) mice
Conditions: higher = longer survival
In short: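 Mice carrying a transplanted tumor received test compound or vehicle alone. The value is the measurement in the treated group divided by that in the vehicle-treated control group.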

[1] = endpoint: mean survival time, dose: 100.0 mg/kg/injection, schedule: Q04DX003 (ip), vehicle: saline with Tween-80
[2] = endpoint: mean survival time, dose: 200.0 mg/kg/injection, schedule: Q04DX003 (ip), vehicle: saline with Tween-80
[3] = endpoint: mean survival time, dose: 400.0 mg/kg/injection, schedule: Q04DX003 (ip), vehicle: saline with Tween-80

O=C1NC2(CCCCC2)C(=O)N1CCN(CCCl)CCCl
T/C (endpoint: median survival time, dose: 0.5 mg/kg/injection, schedule: Q03HX024 (ip), vehicle: Klucel (hydroxypropylcellulose) (HPC)): 98 % of control | T/C (endpoint: median survival time, dose: 1.0 mg/kg/injection, schedule: Q01DX009 (ip), vehicle: Klucel (hydroxypropylcellulose) (HPC)): 101 % of control | T/C (endpoint: median survival time, dose: 1.0 mg/kg/injection, schedule: Q01DX009 (sc), vehicle: Klucel (hydroxypropylcellulose) (HPC)): 98 % of control | T/C (endpoint: median survival time, dose: 1.0 mg/kg/injection, schedule: Q03HX016 (ip), vehicle: Klucel (hydroxypropylcellulose) (HPC)): 96 % of control | T/C (endpoint: median survival time, dose: 1.0 mg/kg/injection, schedule: Q03HX024 (ip), vehicle: Klucel (hydroxypropylcellulose) (HPC)): 98 % of control | T/C (endpoint: median survival time, dose: 2.0 mg/kg/injection, schedule: Q01DX009 (ip), vehicle: Klucel (hydroxypropylcellulose) (HPC)): 101 % of control | T/C (endpoint: median survival time, dose: 2.0 mg/kg/injection, schedule: Q01DX009 (sc), vehicle: Klucel (hydroxypropylcellulose) (HPC)): 101 % of control | T/C (endpoint: median survival time, dose: 2.0 mg/kg/injection, schedule: Q03HX008 (ip), vehicle: Klucel (hydroxypropylcellulose) (HPC)): 110 % of control | T/C (endpoint: median survival time, dose: 2.0 mg/kg/injection, schedule: Q03HX016 (ip), vehicle: Klucel (hydroxypropylcellulose) (HPC)): 104 % of control | T/C (endpoint: median survival time, dose: 2.0 mg/kg/injection, schedule: Q03HX024 (ip), vehicle: Klucel (hydroxypropylcellulose) (HPC)): 106 % of control | T/C (endpoint: median survival time, dose: 4.0 mg/kg/injection, schedule: Q01DX009 (ip), vehicle: Klucel (hydroxypropylcellulose) (HPC)): 107 % of control | T/C (endpoint: median survival time, dose: 4.0 mg/kg/injection, schedule: Q01DX009 (oral), vehicle: Klucel (hydroxypropylcellulose) (HPC)): 123 % of control | T/C (endpoint: median survival time, dose: 4.0 mg/kg/injection, schedule: Q01DX009 (sc), vehicle: Klucel (hydroxypropylcellulose) (HPC)): 103 % of control | T/C (endpoint: median survival time, dose: 4.0 mg/kg/injection, schedule: Q03HX008 (ip), vehicle: Klucel (hydroxypropylcellulose) (HPC)): 106 % of control | T/C (endpoint: median survival time, dose: 4.0 mg/kg/injection, schedule: Q03HX016 (ip), vehicle: Klucel (hydroxypropylcellulose) (HPC)): 103 % of control | T/C (endpoint: median survival time, dose: 4.0 mg/kg/injection, schedule: Q03HX024 (ip), vehicle: Klucel (hydroxypropylcellulose) (HPC)): 109 % of control | T/C (endpoint: median survival time, dose: 4.0 mg/kg/injection, schedule: Q04DX003 (ip), vehicle: Klucel (hydroxypropylcellulose) (HPC)): 100 % of control | T/C (endpoint: median survival time, dose: 6.0 mg/kg/injection, schedule: Q01DX009 (ip), vehicle: Klucel (hydroxypropylcellulose) (HPC)): 153 % of control | T/C (endpoint: median survival time, dose: 8.0 mg/kg/injection, schedule: Q01DX009 (ip), vehicle: Klucel (hydroxypropylcellulose) (HPC)): 106 % of control | T/C (endpoint: median survival time, dose: 8.0 mg/kg/injection, schedule: Q01DX009 (oral), vehicle: Klucel (hydroxypropylcellulose) (HPC)): 115 % of control | T/C (endpoint: median survival time, dose: 8.0 mg/kg/injection, schedule: Q01DX009 (sc), vehicle: Klucel (hydroxypropylcellulose) (HPC)): 114 % of control | T/C (endpoint: median survival time, dose: 8.0 mg/kg/injection, schedule: Q03HX008 (ip), vehicle: Klucel (hydroxypropylcellulose) (HPC)): 115 % of control | T/C (endpoint: median survival time, dose: 8.0 mg/kg/injection, schedule: Q03HX016 (ip), vehicle: Klucel (hydroxypropylcellulose) (HPC)): 111 % of control | T/C (endpoint: median survival time, dose: 8.0 mg/kg/injection, schedule: Q03HX024 (ip), vehicle: Klucel (hydroxypropylcellulose) (HPC)): 122 % of control | T/C (endpoint: median survival time, dose: 8.0 mg/kg/injection, schedule: Q04DX003 (ip), vehicle: Klucel (hydroxypropylcellulose) (HPC)): 103 % of control | T/C (endpoint: median survival time, dose: 8.0 mg/kg/injection, schedule: Q08DX002 (ip), vehicle: Klucel (hydroxypropylcellulose) (HPC)): 106 % of control | T/C (endpoint: median survival time, dose: 9.0 mg/kg/injection, schedule: Q01DX009 (ip), vehicle: Klucel (hydroxypropylcellulose) (HPC)): 157 % of control and 164 % of control | T/C (endpoint: median survival time, dose: 13.0 mg/kg/injection, schedule: Q01DX009 (ip), vehicle: Klucel (hydroxypropylcellulose) (HPC)): 164 % of control and 176 % of control | T/C (endpoint: median survival time, dose: 16.0 mg/kg/injection, schedule: Q01DX001 (ip), vehicle: Klucel (hydroxypropylcellulose) (HPC)): 116 % of control | T/C (endpoint: median survival time, dose: 16.0 mg/kg/injection, schedule: Q01DX001 (sc), vehicle: Klucel (hydroxypropylcellulose) (HPC)): 92 % of control | T/C (endpoint: median survival time, dose: 16.0 mg/kg/injection, schedule: Q01DX009 (ip), vehicle: Klucel (hydroxypropylcellulose) (HPC)): 112 % of control | T/C (endpoint: median survival time, dose: 16.0 mg/kg/injection, schedule: Q01DX009 (oral), vehicle: Klucel (hydroxypropylcellulose) (HPC)): 112 % of control | T/C (endpoint: median survival time, dose: 16.0 mg/kg/injection, schedule: Q01DX009 (sc), vehicle: Klucel (hydroxypropylcellulose) (HPC)): 107 % of control | T/C (endpoint: median survival time, dose: 16.0 mg/kg/injection, schedule: Q03HX008 (ip), vehicle: Klucel (hydroxypropylcellulose) (HPC)): 122 % of control | T/C (endpoint: median survival time, dose: 16.0 mg/kg/injection, schedule: Q04DX003 (ip), vehicle: Klucel (hydroxypropylcellulose) (HPC)): 113 % of control | T/C (endpoint: median survival time, dose: 16.0 mg/kg/injection, schedule: Q08DX002 (ip), vehicle: Klucel (hydroxypropylcellulose) (HPC)): 109 % of control | T/C (endpoint: median survival time, dose: 32.0 mg/kg/injection, schedule: Q01DX001 (ip), vehicle: Klucel (hydroxypropylcellulose) (HPC)): 122 % of control | T/C (endpoint: median survival time, dose: 32.0 mg/kg/injection, schedule: Q01DX001 (oral), vehicle: Klucel (hydroxypropylcellulose) (HPC)): 100 % of control | T/C (endpoint: median survival time, dose: 32.0 mg/kg/injection, schedule: Q01DX001 (sc), vehicle: Klucel (hydroxypropylcellulose) (HPC)): 101 % of control | T/C (endpoint: median survival time, dose: 32.0 mg/kg/injection, schedule: Q01DX009 (oral), vehicle: Klucel (hydroxypropylcellulose) (HPC)): 123 % of control | T/C (endpoint: median survival time, dose: 32.0 mg/kg/injection, schedule: Q01DX009 (sc), vehicle: Klucel (hydroxypropylcellulose) (HPC)): 106 % of control | T/C (endpoint: median survival time, dose: 32.0 mg/kg/injection, schedule: Q04DX003 (ip), vehicle: Klucel (hydroxypropylcellulose) (HPC)): 114 % of control | T/C (endpoint: median survival time, dose: 32.0 mg/kg/injection, schedule: Q08DX002 (ip), vehicle: Klucel (hydroxypropylcellulose) (HPC)): 114 % of control | T/C (endpoint: median survival time, dose: 64.0 mg/kg/injection, schedule: Q01DX001 (ip), vehicle: Klucel (hydroxypropylcellulose) (HPC)): 117 % of control | T/C (endpoint: median survival time, dose: 64.0 mg/kg/injection, schedule: Q01DX001 (oral), vehicle: Klucel (hydroxypropylcellulose) (HPC)): 101 % of control | T/C (endpoint: median survival time, dose: 64.0 mg/kg/injection, schedule: Q01DX001 (sc), vehicle: Klucel (hydroxypropylcellulose) (HPC)): 102 % of control | T/C (endpoint: median survival time, dose: 64.0 mg/kg/injection, schedule: Q01DX009 (oral), vehicle: Klucel (hydroxypropylcellulose) (HPC)): 124 % of control | T/C (endpoint: median survival time, dose: 64.0 mg/kg/injection, schedule: Q08DX002 (ip), vehicle: Klucel (hydroxypropylcellulose) (HPC)): 119 % of control | T/C (endpoint: median survival time, dose: 128.0 mg/kg/injection, schedule: Q01DX001 (oral), vehicle: Klucel (hydroxypropylcellulose) (HPC)): 104 % of control | T/C (endpoint: median survival time, dose: 128.0 mg/kg/injection, schedule: Q01DX001 (sc), vehicle: Klucel (hydroxypropylcellulose) (HPC)): 105 % of control | T/C (endpoint: median survival time, dose: 128.0 mg/kg/injection, schedule: Q08DX002 (ip), vehicle: Klucel (hydroxypropylcellulose) (HPC)): 110 % of control | T/C (endpoint: median survival time, dose: 256.0 mg/kg/injection, schedule: Q01DX001 (ip), vehicle: Klucel (hydroxypropylcellulose) (HPC)): 116 % of control | T/C (endpoint: median survival time, dose: 256.0 mg/kg/injection, schedule: Q01DX001 (oral), vehicle: Klucel (hydroxypropylcellulose) (HPC)): 107 % of control | T/C (endpoint: median survival time, dose: 256.0 mg/kg/injection, schedule: Q01DX001 (sc), vehicle: Klucel (hydroxypropylcellulose) (HPC)): 104 % of control | T/C (endpoint: median survival time, dose: 512.0 mg/kg/injection, schedule: Q01DX001 (oral), vehicle: Klucel (hydroxypropylcellulose) (HPC)): 107 % of control

N#CSCCOCCSC#N
T/C (endpoint: mean survival time, dose: 2.5 mg/kg/injection, schedule: Q04DX003 (ip), vehicle: saline with Tween-80): 100 % of control | T/C (endpoint: mean survival time, dose: 5.0 mg/kg/injection, schedule: Q04DX003 (ip), vehicle: saline with Tween-80): 96 % of control

NC(=O)C1=C2CCCc3cccc(c32)C1=O
T/C (endpoint: mean survival time, dose: 100.0 mg/kg/injection, schedule: Q01DX009 (ip), vehicle: saline with Tween-80): 94 % of control | T/C [1]: 99 % of control | T/C (endpoint: mean survival time, dose: 200.0 mg/kg/injection, schedule: Q01DX009 (ip), vehicle: saline with Tween-80): 94 % of control | T/C [2]: 100 % of control | T/C (endpoint: mean survival time, dose: 400.0 mg/kg/injection, schedule: Q01DX009 (ip), vehicle: saline with Tween-80): 97 % of control | T/C [3]: 87 % of control

CC/C=C\C/C=C\C/C=C\CCCCCCCC(=O)O
T/C [1]: 92 % of control | T/C [2]: 100 % of control | T/C [3]: 92 % of control

Cc1cccc(N)n1 (tested in a mixture with another compound)
T/C (endpoint: mean survival time, dose: 12.5 mg/kg/injection, schedule: Q01DX009 (ip), vehicle: saline): 104 % of control | T/C (endpoint: mean survival time, dose: 25.0 mg/kg/injection, schedule: Q01DX009 (ip), vehicle: saline): 101 % of control | T/C (endpoint: mean survival time, dose: 50.0 mg/kg/injection, schedule: Q01DX009 (ip), vehicle: saline): 96 % of control

C/C=C(\C)c1cc(=O)c2c(C)cc3c(c2o1)C(=O)c1c(O)c(C2CC(C)(N(C)C)C(OC(C)=O)C(C)O2)cc(C2CC(N(C)C)C(O)C(C)O2)c1C3=O (stereo not given)
T/C (endpoint: mean survival time, dose: 0.15 mg/kg/injection, schedule: Q01DX009 (ip), vehicle: saline): 103 % of control | T/C (endpoint: mean survival time, dose: 0.31 mg/kg/injection, schedule: Q01DX009 (ip), vehicle: saline): 98 % of control | T/C (endpoint: mean survival time, dose: 0.62 mg/kg/injection, schedule: Q01DX009 (ip), vehicle: saline): 115 % of control and 100 % of control | T/C (endpoint: mean survival time, dose: 1.25 mg/kg/injection, schedule: Q01DX009 (ip), vehicle: saline): 106 % of control and 111 % of control | T/C (endpoint: mean survival time, dose: 2.5 mg/kg/injection, schedule: Q01DX009 (ip), vehicle: saline): 105 % of control and 108 % of control | T/C (endpoint: mean survival time, dose: 5.0 mg/kg/injection, schedule: Q01DX009 (ip), vehicle: saline): 115 % of control
